{
  "source": "patent EP0982027A1",
  "about": "“Taxoid derivatives for treating abnormal cell proliferation of the brain” (RHONE-POULENC RORER S.A., priority 1998, dated 2000)",
  "assay": "in vivo",
  "design": "species or system female C3H/HeN mice",
  "settings": "mouse; for concentration at 6 h: 6h after dose; for concentration at 8 h: 8h after dose; for concentration at 14 h: 14h after dose; for concentration at 24 h: 24 h after dose; for concentration at 48 h: 48 h after dose; for concentration at 5 min: 5 min after dose; for concentration at 0.25 h: 15 min after dose; for concentration at 0.5 h: 0.5h after dose; for concentration at 0.75 h: 0.75h after dose; for concentration at 1 h: 1h after dose; for Vd: read-out: Vdss; for AUC(0-inf): mean level data",
  "experimental": "Groups of female C3H/HeN mice received the product by the intravenous route as a bolus at a dose level of 40 mg.kg^-1 equivalent to 120 mg.m^-2. Blood and brain samples were obtained from all dosed animals sacrificed at intervals up to 72 hours post dose. Brain and corresponding plasma samples have been assayed for product Ia content by an LC-MS/MS assay.\n• Formulation: 2.25 mg.ml^-1 solution containing 5 % Polysorbate 80, 5 % ethanol and 90 % of an aqueous 5 % glucose solution. […]\n• Sampling : Blood by cardiac puncture and liver and brain by dissection after CO2 sacrifice • Sample Times : at 2, 5, 15, 30, 45 minutes, 1, 2, 4, 6, 8, 14, 24, 48 and 72 hours post dose.\nWhole blood was collected into heparinised tubes and corresponding plasma samples were obtained by centrifugation and frozen immediately at -20°C. Tissues were blotted, weighed and frozen immediately at -20°C. All samples were dispatched frozen for analysis. Upon receipt, samples were stored frozen at approximately -18°C pending analysis.\n• Detection: LC-MS/MS (Sciex API III plus) in turbo-ionspray mode\nThe following MS conditions were applied:\nColumn: 75 x 4.6 mm Supelcosil ABZ plus (3 µm). Mobile phase: Acetonitrile/methanol/ammonium acetate (10mM); 40/25/35 v/v/v. Flow rate : 1 ml.min^-1. Temperature : Ambient. Extraction : Plasma: Add 100 µl of acetonitrile to sample (50 µl). Vortex, centrifuge, remove supernatant, add 100 µl of mobile phase and inject 150 µl. Brain : Add 100 µl of acetonitrile to homogenised sample (100 mg of a 1:1 w/w brain with water homogenate) and vortex. Add 1ml of diethyl ether, vortex, centrifuge, remove organic layer and dry under N2. Reconstitute in 200 µl of mobile phase and inject 150 µl. Calibration standards: Plasma : Nine at concentrations of 5, 10, 20, 50, 100, 200, 300, 400 & 500 ng.ml^-1 (product Ia). Prepared by adding suitable aliquots of the product (concentrations = 0.1, 1 or 10 µg.ml^-1) in ethanol to 0.5 ml aliquots of mouse plasma. Each sample was vortexed following drug addition; a 50 µl aliquot was then removed for assay. Brain : Eleven at concentrations of 10, 20, 30, 100, 200, 300, 400, 500, 1000, 2500 & 5000 ng.g^-1 in homogenised mouse brain (1:1 w/w brain with water). Prepared by adding suitable aliquots of the product (concentrations = 1, 10 or 100 µg.ml^-1) in ethanol to 0.5, 1, 3 or 4 g of homogenised mouse brain. Each sample was vortexed following drug addition and a 100 mg aliquot was then removed for assay. Retention times: Drug; product Ia: ∼2.3 min. Extraction efficiency : Plasma : ca.58 % at 200 ng.ml^-1. Brain : ca.41 % at 500 ng.g^-1 and 39 % at 1000 ng.g^-1.\nA biexponential equation was fitted to the profiles using an interactive linear least-square algorithm as part of the SIPHAR package.\nAUC0-∞: Area under the plasma or brain concentration versus time curve from t=0 (start of infusion) to infinity. Initial T1/2: Initial (distribution) half-life. Terminal T1/2: Terminal (elimination) half-life (should be regarded as an estimate only being dependent on sampling frequency in the terminal phase and assay sensitivity). ClT: Total plasma clearance. Vdss: Volume of distribution at steady state. n.a.: Not applicable.",
  "key": {"[1]": {"settings": "brain, iv, 40 mg/kg, 40 mg.kg^-1 i.v., MEAN, read-out: Brain product Ic concentration"}, "[2]": {"settings": "brain, iv, 40 mg/kg, 40 mg.kg^-1 i.v., individual animals IV1-IV4, read-out: Brain product Ic concentration"}, "[3]": {"settings": "plasma, iv, 40 mg/kg, 40 mg.kg^-1 i.v., MEAN, read-out: Plasma product Ic concentration"}, "[4]": {"settings": "plasma, iv, 40 mg/kg, 40 mg.kg^-1 i.v., individual animals IV1-IV4, read-out: Plasma product Ic concentration"}, "[5]": {"settings": "plasma, iv, 40 mg/kg, Plasma+, calculated from values ≥ l.o.d. of 4 ng.ml^-1, 40 mg.kg^-1 i.v."}},
  "note": "Where two headings read alike, the source gives them in different places.",
  "data": [
    {"smiles": "CO[C@H]1C(=O)[C@]2(C)[C@@H](OC)C[C@H]3OC[C@@]3(OC(C)=O)[C@H]2[C@H](OC(=O)c2ccccc2)[C@]2(O)C[C@H](OC(=O)[C@H](O)[C@@H](NC(=O)OC(C)(C)C)c3ccccc3)C(C)=C1C2(C)C", "note": "[product Ia, 4α-acetoxy-2α-benzoyloxy-5β,20-epoxy-1β-hydroxy-7β,10β-dimethoxy-9-oxo-11-taxen-13α-yl (2R,3S)-3 tert-butoxycarbonylamino-2-hydroxy-3-phenylpropionate]", "values": [
      {"measurement": "concentration at 4 h", "setting": "brain, iv, 40 mg/kg, 40 mg.kg^-1 i.v., 4h after dose, individual animals IV1-IV4, read-out: Brain product Ic concentration", "result": 7910, "unit": "ng/g"},
      {"measurement": "concentration at 6 h", "setting": "[1]", "result": 6430, "unit": "ng/g"},
      {"measurement": "concentration at 8 h", "setting": "[1]", "result": 8250, "unit": "ng/g"},
      {"measurement": "concentration at 8 h", "setting": "[2]", "result": 9070, "unit": "ng/g"},
      {"measurement": "concentration at 14 h", "setting": "[1]", "result": 9130, "unit": "ng/g"},
      {"measurement": "concentration at 14 h", "setting": "[2]", "result": 9620, "unit": "ng/g"},
      {"measurement": "concentration at 24 h", "setting": "[1]", "result": 8670, "unit": "ng/g"},
      {"measurement": "concentration at 24 h", "setting": "[2]", "result": 7900, "unit": "ng/g"},
      {"measurement": "concentration at 48 h", "setting": "[1]", "result": 7720, "unit": "ng/g"},
      {"measurement": "concentration at 48 h", "setting": "[2]", "result": 6660, "unit": "ng/g"},
      {"measurement": "concentration at 72 h", "setting": "brain, iv, 40 mg/kg, 40 mg.kg^-1 i.v., 72 h after dose, MEAN, read-out: Brain product Ic concentration", "result": 5250, "unit": "ng/g"},
      {"measurement": "concentration at 72 h", "setting": "brain, iv, 40 mg/kg, 40 mg.kg^-1 i.v., 72 h after dose, individual animals IV1-IV4, read-out: Brain product Ic concentration", "result": 5900, "unit": "ng/g"},
      {"measurement": "concentration at 2 min", "setting": "brain, iv, 40 mg/kg, 40 mg.kg^-1 i.v., at 2 mins, read-out: brain level at the first sampling time", "result": 7900, "unit": "ng/g"},
      {"measurement": "concentration at 72 h", "setting": "brain, iv, 40 mg/kg, 40 mg.kg^-1 i.v., at 72h, read-out: brain concentration at the last sampling time", "result": 5300, "unit": "ng/g"},
      {"measurement": "concentration at 2 min", "setting": "plasma, iv, 40 mg/kg, 40 mg.kg^-1 i.v., 2 min after dose, MEAN, read-out: Plasma product Ic concentration", "result": 46900, "unit": "ng/mL"},
      {"measurement": "concentration at 2 min", "setting": "plasma, iv, 40 mg/kg, 40 mg.kg^-1 i.v., 2 min after dose, individual animals IV1-IV4, read-out: Plasma product Ic concentration", "result": 53000, "unit": "ng/mL"},
      {"measurement": "concentration at 5 min", "setting": "[3]", "result": 34300, "unit": "ng/mL"},
      {"measurement": "concentration at 5 min", "setting": "[4]", "result": 36700, "unit": "ng/mL"},
      {"measurement": "concentration at 0.25 h", "setting": "[3]", "result": 20500, "unit": "ng/mL"},
      {"measurement": "concentration at 0.25 h", "setting": "[4]", "result": 20500, "unit": "ng/mL"},
      {"measurement": "concentration at 0.5 h", "setting": "[3]", "result": 10400, "unit": "ng/mL"},
      {"measurement": "concentration at 0.5 h", "setting": "[4]", "result": 10800, "unit": "ng/mL"},
      {"measurement": "concentration at 0.75 h", "setting": "[3]", "result": 9090, "unit": "ng/mL"},
      {"measurement": "concentration at 0.75 h", "setting": "[4]", "result": 7130, "unit": "ng/mL"},
      {"measurement": "concentration at 1 h", "setting": "[3]", "result": 6550, "unit": "ng/mL"},
      {"measurement": "concentration at 1 h", "setting": "[4]", "result": 6020, "unit": "ng/mL"},
      {"measurement": "concentration at 4 h", "setting": "plasma, iv, 40 mg/kg, 40 mg.kg^-1 i.v., 4h after dose, MEAN, read-out: Plasma product Ic concentration", "result": 962, "unit": "ng/mL"},
      {"measurement": "concentration at 4 h", "setting": "plasma, iv, 40 mg/kg, 40 mg.kg^-1 i.v., 4h after dose, individual animals IV1-IV4, read-out: Plasma product Ic concentration", "result": 1070, "unit": "ng/mL"},
      {"measurement": "concentration at 6 h", "setting": "[3]", "result": 362, "unit": "ng/mL"},
      {"measurement": "concentration at 6 h", "setting": "[4]", "result": 449, "unit": "ng/mL"},
      {"measurement": "concentration at 8 h", "setting": "[3]", "result": 188, "unit": "ng/mL"},
      {"measurement": "concentration at 8 h", "setting": "[4]", "result": 204, "unit": "ng/mL"},
      {"measurement": "concentration at 14 h", "setting": "[3]", "result": 56, "unit": "ng/mL"},
      {"measurement": "concentration at 14 h", "setting": "[4]", "result": 65, "unit": "ng/mL"},
      {"measurement": "concentration at 24 h", "setting": "[3]", "result": 16, "unit": "ng/mL"},
      {"measurement": "concentration at 48 h", "setting": "[3]", "result": 2, "unit": "ng/mL"},
      {"measurement": "concentration at 4 h", "setting": "plasma, iv, 40 mg/kg, 40 mg.kg^-1 i.v., within 4h, read-out: plasma level", "result": "< 1000", "unit": "ng/mL"},
      {"measurement": "half-life", "setting": "plasma, iv, 40 mg/kg, Plasma#, calculated from values ≥ b.l.q. of 20 ng.ml^-1, 40 mg.kg^-1 i.v., read-out: Initial T1/2 (converted)", "result": 12, "unit": "min"},
      {"measurement": "half-life", "setting": "plasma, iv, 40 mg/kg, Plasma#, calculated from values ≥ b.l.q. of 20 ng.ml^-1, 40 mg.kg^-1 i.v., read-out: Terminal T1/2 (converted)", "result": 120, "unit": "min"},
      {"measurement": "Vd", "setting": "plasma, iv, 40 mg/kg, Plasma#, calculated from values ≥ b.l.q. of 20 ng.ml^-1, 40 mg.kg^-1 i.v.", "result": 2.4, "unit": "L/kg"},
      {"measurement": "AUC(0-inf)", "setting": "[5]", "result": 30000, "unit": "ng·h/mL"},
      {"measurement": "half-life", "setting": "plasma, iv, 40 mg/kg, Plasma+, calculated from values ≥ l.o.d. of 4 ng.ml^-1, 40 mg.kg^-1 i.v., read-out: Initial T1/2 (converted)", "result": 42, "unit": "min"},
      {"measurement": "half-life", "setting": "plasma, iv, 40 mg/kg, Plasma+, calculated from values ≥ l.o.d. of 4 ng.ml^-1, 40 mg.kg^-1 i.v., read-out: Terminal T1/2 (converted)", "result": 372, "unit": "min"},
      {"measurement": "Vd", "setting": "[5]", "result": 1.9, "unit": "L/kg"},
      {"measurement": "AUC(0-inf)", "setting": "plasma, iv, 40 mg/kg, calculated from values ≥ b.l.q. of 20 ng.ml^-1, 40 mg.kg^-1 i.v.", "result": 29800, "unit": "ng·h/mL"},
      {"measurement": "half-life", "setting": "plasma, iv, 40 mg/kg, plasma, 40 mg.kg^-1 i.v., read-out: initial half-life", "result": "≤ 42", "unit": "min"},
      {"measurement": "levels in the brain relative to those in the plasma", "setting": "on the basis of AUC0-∞ values, 40 mg.kg^-1 i.v.", "result": "about twenty times"},
      {"measurement": "concentration at 24 h", "setting": "plasma, iv, 40 mg.kg^-1 i.v., individual animals IV1-IV4, values flagged blq (below limit of accurate quantification, 20 ng.ml^-1), read-out: Plasma product Ic concentration", "result": 18, "unit": "ng/mL"},
      {"measurement": "concentration at 48 h", "setting": "plasma, iv, 40 mg.kg^-1 i.v., individual animals IV1-IV4, blq = below 20 ng.ml^-1, n.d. = not detected (≤ l.o.d. of 4 ng.ml^-1), read-out: Plasma product Ic concentration", "result": 4, "unit": "ng/mL"},
      {"measurement": "Cmax at 2 min", "setting": "plasma, iv, 40 mg.kg^-1 i.v., peak at 2 minutes, read-out: plasma peak level (mean)", "result": 46900, "unit": "ng/mL"},
      {"measurement": "penetration of the blood brain barrier", "setting": "post-i.v. administration", "result": "readily penetrate the blood brain barrier"}
    ]}
  ]
}
